Counter-ions that a name gives are not always drawn.
Biological target: human recombinant HDAC6 (Homo sapiens (Human), UniProt Q9UBN7)
Experiment: HDAC6 enzyme activity inhibition assay (HDAC Fluorimetric Drug Discovery Kit)
Type: biochemical
Conditions: for HDAC6 selectivity (fold): HDAC6 versus HDAC1; for IC50: human recombinant HDAC6, same protocol as HDAC1 test
Method: In order to examine the HDAC6 selectivity of the compounds of formula I of the present invention by HDAC1 and HDAC6 enzymatic activity inhibition assays, an experiment was performed using a conventional substance as a control.
HDAC enzyme activity was measured using a HDAC Fluorimetric Drug Discovery Kit (BML-AK511, 516, Enzo Life Science). For the HDAC1 enzyme activity test, human recombinant HDAC1 (BML-SE456) was used as an enzyme source, and Fluor de Lys®-“SIRT1 (BNL-KI177) was used as a substrate. A 5-fold dilution of the compound was seeded into a 96-well plate, and then 0.3 μg of the enzyme and 10 μM of the substrate were added to each well of the plate and allowed to react at 30 for 60 minutes. Then, Fluor de Lys®-Developer II (BML-KI176) was added thereto and allowed to react for 30 minutes, after which the fluorescence value (Ex 360, Em 460) was measured using a multi-plate reader (Flexstation 3, Molecular Device). The HDAC6 enzyme was tested using human recombinant HDAC6 (382180) (Calbiochem) according to the same protocol as the HDAC1 enzyme activity test method. Based on the resulting values, each IC50 value was calculated using GraphPad Prism4.0 program.

human recombinant HDAC6, sequence (Q9UBN7 whole entry): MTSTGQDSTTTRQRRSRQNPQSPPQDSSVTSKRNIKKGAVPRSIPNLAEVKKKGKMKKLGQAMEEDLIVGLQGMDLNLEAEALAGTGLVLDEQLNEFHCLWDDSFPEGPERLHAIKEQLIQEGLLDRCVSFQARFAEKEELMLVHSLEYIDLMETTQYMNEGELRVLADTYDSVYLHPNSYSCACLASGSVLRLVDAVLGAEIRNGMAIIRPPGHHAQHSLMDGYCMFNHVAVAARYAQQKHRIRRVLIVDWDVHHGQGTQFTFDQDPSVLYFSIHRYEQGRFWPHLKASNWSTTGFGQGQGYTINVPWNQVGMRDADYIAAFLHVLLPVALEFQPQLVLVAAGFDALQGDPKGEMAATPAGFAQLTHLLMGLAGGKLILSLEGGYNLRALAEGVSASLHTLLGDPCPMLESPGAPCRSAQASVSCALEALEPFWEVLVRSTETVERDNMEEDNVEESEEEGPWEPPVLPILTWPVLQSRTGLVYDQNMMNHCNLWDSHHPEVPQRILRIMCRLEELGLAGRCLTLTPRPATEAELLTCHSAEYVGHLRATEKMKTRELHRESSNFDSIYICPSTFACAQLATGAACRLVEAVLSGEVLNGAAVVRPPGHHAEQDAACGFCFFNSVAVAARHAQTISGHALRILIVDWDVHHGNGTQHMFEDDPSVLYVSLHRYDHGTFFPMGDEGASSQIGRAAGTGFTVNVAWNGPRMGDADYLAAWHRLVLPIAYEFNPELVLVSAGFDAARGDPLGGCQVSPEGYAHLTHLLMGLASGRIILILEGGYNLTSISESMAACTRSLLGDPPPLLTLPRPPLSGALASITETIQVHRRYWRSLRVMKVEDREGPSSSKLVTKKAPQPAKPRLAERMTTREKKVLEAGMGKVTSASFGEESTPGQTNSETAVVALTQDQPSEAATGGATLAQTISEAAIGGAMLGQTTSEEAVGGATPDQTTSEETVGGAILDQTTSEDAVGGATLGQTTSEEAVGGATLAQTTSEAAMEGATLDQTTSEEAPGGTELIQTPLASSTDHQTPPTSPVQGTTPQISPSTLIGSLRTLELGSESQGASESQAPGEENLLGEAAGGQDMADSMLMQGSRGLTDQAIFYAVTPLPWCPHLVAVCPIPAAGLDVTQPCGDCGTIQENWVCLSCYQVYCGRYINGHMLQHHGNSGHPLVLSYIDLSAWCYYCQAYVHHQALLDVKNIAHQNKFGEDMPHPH

HDAC6 selectivity (fold) | IC50 [nM] | Compound
1169 | 86 | CCN1CCN(S(=O)(=O)N(Cc2ccc(-c3nnc(C(F)(F)F)o3)cc2F)c2ccccc2)CC1 [Compound 11299, 4-ethyl-N-(2-fluoro-4-(5-(trifluoromethyl)-1,3,4-oxadiazol-2-yl)benzyl)-N-phenylpiperazine-1-sulfonamide]
1464 | 68 | CS(=O)(=O)N1CCN(S(=O)(=O)N(Cc2ccc(-c3nnc(C(F)F)o3)cc2F)c2cccnc2)CC1 [Compound 11319, N-(4-(5-(difluoromethyl)-1,3,4-oxadiazol-2-yl)-2-fluorobenzyl)-4-(methylsulfonyl)-N-(pyridin-3-yl)piperazine-1-sulfonamide]
4761 | 21 | CC(C)N1CCN(S(=O)(=O)N(Cc2ccc(-c3nnc(C(F)F)o3)cn2)c2ccc(F)c(Cl)c2)CC1 [Compound 11670, N-(3-chloro-4-fluorophenyl)-N-((5-(5-(difluoromethyl)-1,3,4-oxadiazol-2-yl)pyridin-2-yl)methyl)-4-isopropylpiperazine-1-sulfonamide]
5000 | 20 | O=S1(=O)CCN(S(=O)(=O)N(Cc2ccc(-c3nnc(C(F)F)o3)cn2)c2ccccc2)CC1 [Compound 11440, N-((5-(5-(difluoromethyl)-1,3,4-oxadiazol-2-yl)pyridin-2-yl)methyl)-N-phenylthiomorpholine-4-sulfonamide 1,1-dioxide]
636 | 157 | CC(C)C(=O)N1CCN(S(=O)(=O)N(Cc2ccc(-c3nnc(C(F)(F)F)o3)cc2F)c2ccccc2)CC1 [Compound 11296, N-(2-fluoro-4-(5-(trifluoromethyl)-1,3,4-oxadiazol-2-yl)benzyl)-4-isobutyryl-N-phenylpiperazine-1-sulfonamide]
2299 | 43 | CC(=O)N1CCN(S(=O)(=O)N(Cc2ccc(-c3nnc(C(F)F)o3)cc2F)c2cccnc2)CC1 [Compound 11318, 4-acetyl-N-(4-(5-(difluoromethyl)-1,3,4-oxadiazol-2-yl)-2-fluorobenzyl)-N-(pyridin-3-yl)piperazine-1-sulfonamide]
2249 | 44 | O=S(=O)(N1CCNCC1)N(Cc1ccc(-c2nnc(C(F)(F)F)o2)cc1F)c1cccnc1 [Compound 11321, N-(2-fluoro-4-(5-(trifluoromethyl)-1,3,4-oxadiazol-2-yl)benzyl)-N-(pyridin-3-yl)piperazine-1-sulfonamide Dihydrochloride]
1829 | 55 | CN1CCN(S(=O)(=O)N(Cc2ccc(-c3nnc(C(F)F)o3)cc2F)c2cccnc2)CC1 [Compound 11320, N-(4-(5-(difluoromethyl)-1,3,4-oxadiazol-2-yl)-2-fluorobenzyl)-4-methyl-N-(pyridin-3-yl)piperazine-1-sulfonamide]
2083 | 48 | Cc1cccc(N(Cc2ccc(-c3nnc(C(F)F)o3)cn2)S(=O)(=O)N2CCN(C)[C@H](C)C2)c1 [Compound 11823, (R)—N-((5-(5-(difluoromethyl)-1,3,4-oxadiazol-2-yl)pyridin-2-yl)methyl)-3,4-dimethyl-N-(m-tolyl)piperazine-1-sulfonamide]
738 | 136 | O=S(=O)(N1CCOCC1)N(Cc1ccc(-c2nnc(C(F)(F)F)o2)cc1)c1ccc(F)cc1 [Compound 11198, N-(4-fluorophenyl)-N-(4-(5-(trifluoromethyl)-1,3,4-oxadiazol-2-yl)benzyl)morpholine-4-sulfonamide]
1188 | 84 | CC(=O)N1CCN(S(=O)(=O)N(Cc2ccc(-c3nnc(C(F)(F)F)o3)cc2F)c2cccc(F)c2)CC1 [Compound 11311, 4-acetyl-N-(2-fluoro-4-(5-(trifluoromethyl)-1,3,4-oxadiazol-2-yl)benzyl)-N-(3-fluorophenyl)piperazine-1-sulfonamide]
2777 | 36 | C[C@@H]1CN(S(=O)(=O)N(Cc2ccc(-c3nnc(C(F)F)o3)cn2)c2cccc(Cl)c2)CCN1C [Compound 11825, (R)—N-(3-chlorophenyl)-N-((5-(5-(difluoromethyl)-1,3,4-oxadiazol-2-yl)pyridin-2-yl)methyl)-3,4-dimethylpiperazine-1-sulfonamide]
4363 | 23 | CN1CCN(S(=O)(=O)N(Cc2ccc(-c3nnc(C(F)F)o3)cc2F)c2ccccc2)CC1 [Compound 11306, N-(4-(5-(difluoromethyl)-1,3,4-oxadiazol-2-yl)-2-fluorobenzyl)-4-methyl-N-phenylpiperazine-1-sulfonamide]
2083 | 48 | O=S(=O)(N1CCN(C2COC2)CC1)N(Cc1ccc(-c2nnc(C(F)F)o2)cc1)c1ccccc1 [Compound 11575, N-(4-(5-(difluoromethyl)-1,3,4-oxadiazol-2-yl)benzyl)-4-(oxetan-3-yl)-N-phenylpiperazine-1-sulfonamide]
3174 | 32 | CC(=O)N1CCN(S(=O)(=O)N(Cc2ccc(-c3nnc(C(F)F)o3)cc2F)c2ccccc2)CC1 [Compound 11302, 4-acetyl-N-(4-(5-(difluoromethyl)-1,3,4-oxadiazol-2-yl)-2-fluorobenzyl)-N-phenylpiperazine-1-sulfonamide]
4031 | 25 | CN1CCN(S(=O)(=O)N(Cc2ccc(-c3nnc(C(F)F)o3)cc2F)c2cccc(F)c2)CC1 [Compound 11316, N-(4-(5-(difluoromethyl)-1,3,4-oxadiazol-2-yl)-2-fluorobenzyl)-N-(3-fluorophenyl)-4-methylpiperazine-1-sulfonamide]
3448 | 29 | C[C@H]1CN(S(=O)(=O)N(Cc2ccc(-c3nnc(C(F)F)o3)cn2)c2cccc(Cl)c2)CCN1C [Compound 11829, (S)—N-(3-chlorophenyl)-N-((5-(5-(difluoromethyl)-1,3,4-oxadiazol-2-yl)pyridin-2-yl)methyl)-3,4-dimethylpiperazine-1-sulfonamide]
2620 | 38 | CS(=O)(=O)N1CCN(S(=O)(=O)N(Cc2ccc(-c3nnc(C(F)F)o3)cc2F)c2ccccc2)CC1 [Compound 11305, N-(4-(5-(difluoromethyl)-1,3,4-oxadiazol-2-yl)-2-fluorobenzyl)-4-(methylsulfonyl)-N-phenylpiperazine-1-sulfonamide]
429 | 233 | CN(CCN1CCN(C2COC2)CC1)S(=O)(=O)N(Cc1ccc(-c2nnc(C(F)F)o2)cc1)c1ccccc1 [Compound 11704, 2-((4-(((N-methyl-N-(2-(4-(oxetan-3-yl)piperazin-1-yl)ethyl)sulfamoyl)(phenyl)amino)methyl))phenyl)-5-(difluoromethyl)-1,3,4-oxadiazole]
3367 | 30 | CC(=O)N1CCN(S(=O)(=O)N(Cc2ccc(-c3nnc(C(F)F)o3)cc2F)c2cccc(F)c2)CC1 [Compound 11315, 4-acetyl-N-(4-(5-(difluoromethyl)-1,3,4-oxadiazol-2-yl)-2-fluorobenzyl)-N-(3-fluorophenyl)piperazine-1-sulfonamide]

— patent US10464911B2, “1,3,4-oxadiazole sulfamide derivative compounds as histone deacetylase 6 inhibitor, and the pharmaceutical composition comprising the same” (Chong Kun Dang Pharmaceutical Corp., priority 2015, dated 2019)
